From publication PMC2915760 (Bioorganic & medicinal chemistry, 2010)

Molecular target: T1, Lyp-CCPGCC (lymphoid-specific protein tyrosine phosphatase, PTPN22, engineered insertion mutant) (Homo sapiens, UniProt Q9Y2R2, INS199CCPGCC)
T1 sequence (Q9Y2R2 with tags, fused parts or gaps INS199CCPGCC): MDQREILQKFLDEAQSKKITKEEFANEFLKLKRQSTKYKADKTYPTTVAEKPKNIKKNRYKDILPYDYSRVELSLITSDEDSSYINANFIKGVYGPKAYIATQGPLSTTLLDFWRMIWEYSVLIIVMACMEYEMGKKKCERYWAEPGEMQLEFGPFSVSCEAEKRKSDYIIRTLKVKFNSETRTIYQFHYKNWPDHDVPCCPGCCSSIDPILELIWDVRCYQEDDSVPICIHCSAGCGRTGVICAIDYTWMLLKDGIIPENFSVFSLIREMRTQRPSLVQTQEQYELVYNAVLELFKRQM
Assay: FlAsH fluorescence titration with purified Lyp-CCPGCC
Assay type: binding

`O=C1OC2(c3ccccc31)c1ccc(O)c([As]3SCCS3)c1Oc1c2ccc(O)c1[As]1SCCS1` [FlAsH] gave a Kd of 0.068 µM.
